# Source: patent US20030091553A1 (priority 2001, published 2003)
# Like-named read-outs stand apart in the source and are kept apart here.
# Experiments:
# [1] = Effect of the duration of administration of histamine; details: administered over longer than about 30 minutes
# [2] = tested on: early alcohol-induced liver injury
# Source text: (§1) Animals and Treatments. Female Wistar rats weighing between 200 and 275 g were fed ad libitum continuously for up to 4 weeks a liquid diet (Dyets, Bethlehem, Pa. #710034) in which 35% of the calories were from corn oil, […], 5% were from vitamins and minerals, 11% were from maltose-dextrin, and 36% were from ethanol. An isocaloric maltose-dextrin diet (Dyets, #710270) was used for control. Rats were given a single dose of ethanol (5 g/kg body weight intragastrically) using an 18-gauge oral biomedical device (Popper & Sons, Inc., New Hyde Park, N.Y.) diluted in PBS (pH 7.2; GIBCO Laboratories Life Technologies Inc., Grand Island, N.Y.) every 24 hours. Control animals were gavaged with PBS alone. Either histamine dihydrochloride (0.5 mg/kg or 5.0 mg/kg; Sigma Chemical Co., St. Louis, Mo.) or vehicle (PBS, pH 7.4; GIBCO Laboratories Life Technologies Inc., Grand Island, N.Y.) was administered by subcutaneous injection twice daily for 4 weeks. Body weights of each rat were measured daily. Rats were housed in a pathogen-free facility and the institutional animal care and use committee approved the surgical procedures used in this study.
# [3] = both histamine treated groups versus ethanol alone treated group
# Source text: as §1
# [4] = tested on: early alcohol-induced liver injury; remark: listed apart in the source
# Source text: as §1
# Pathological Evaluation. After 2 and 4 weeks of ethanol treatment, livers were formalin fixed, embedded in paraffin, and stained with hematoxylin and eosin to assess steatosis, inflammation, and necrosis. Liver pathology was scored in a blinded manner by an outside expert as follows:
# 1. Degree of steatosis, score 0-4 (based on % of hepatocytes containing lipid)
# 2. Degree of inflammatory cell infiltration, score 0-4
# 3. Degree of degeneration and necrosis, score 0-4
# The points for each grade of histological evaluation were compiled into a total score for each liver.
# Severity scores for each finding in each group were summed and then divided by the number of animals evaluated per group. The groups were assigned scores as follows: None=0; […].
# [5] = tested on: CD3+T-cells, CD3-/56+ NK-cells and CD3+/56+ NK/T-cells; details: all cell types; induced by autologous monocytes or granulocytes; p<0.001
# Source text: (§2) This example illustrates the effect of histamine on the lymphocytes isolated from human liver. […] All data are the mean±s.e.m. (n=15-30 blood donors).
# [6] = tested on: drug-induced liver damage; details: oral tablet with isoniazid, six to twelve months, versus isoniazid alone
# Protocol: An individual presenting with tuberculosis is prescribed an oral tablet comprising isoniazid and an effective dose of histamine for a period of six to twelve months. During the treatment period, the patient is monitored by a physician and lab tests to check the status of the patient's liver in response to the medication are performed.
# [7] = tested on: drug-induced liver damage; details: daily oral dose of 10 mg, patient on phenytoin three times a day
# Protocol: An epileptic taking phenytoin three times a day to control seizures is supplemented with a daily oral dose of 10 mg of histamine dihydrochloride. Prior to supplementation with histamine dihydrochloride, the epileptic experiences liver damage as a consequence of taking phenytoin as confirmed by liver biopsy.
# T-cells = details: 25 μM hydrogen peroxide, n=8, mean±s.e.m.
# Source text: as §2
# NK/T-cells = details: 25 μM hydrogen peroxide, n=8, mean±s.e.m.
# Source text: as §2
# NK-cells = details: 25 μM hydrogen peroxide, n=8, mean±s.e.m.
# Source text: as §2
# [8] = tested on: hepatotoxic effect of comfrey; assay: Catalase supplement in an individual consuming comfrey; type: in vivo, human; details: 8 mg/day
# Protocol: The common herb comfrey can be administered as a poultice or tea drink to as an expectorant, demulcent, and/or tonic. However, consumption of comfrey has been linked to liver damage. In order to minimize the hepatotoxic effect of comfrey, an individual consuming comfrey as an herbal remedy is supplemented with 8 mg/day of catalase.
# [9] = tested on: hepatic tissue damage secondary to pancreatitis; details: 100 μg/kg per day over one to two weeks, acute pancreatitis
# Protocol: A patient presenting with acute pancreatitis is identified. The patient is administered 100 μg/kg histamine diphosphate per day over a period of one to two weeks. A liver biopsy is performed upon resolution of the pancreatitis.
molecule,measurement,setting,value
"NCCc1c[nH]cn1 [Histamine, histamine]",efficacy,[1],decreased or lack of efficacy
same,pathology scores and serum transaminase levels,[2]; 0.5 mg/kg or 5 mg/kg twice daily s.c.,normalization
same,ALT activity,"[2]; preliminary results, ethanol control group 2-3 fold increase",somewhat normal ALT activity
same,recovery of body weight,[3],recovered their body weights more quickly
same,liver injury,"[4]; 0.5 mg/kg or 5 mg/kg twice daily s.c., highest dose most effective",blunted liver injury in a dose dependent manner
same,"Histologic Findings in Liver, Mean Group Severity Scores, Total Overall Score","[4]; High Histamine (5.0 mg/kg s.c. twice daily), Week 2 of ethanol treatment",2.00
same,"Histologic Findings in Liver, Mean Group Severity Scores, Total Overall Score","[4]; High Histamine (5.0 mg/kg s.c. twice daily), Week 4 of ethanol treatment",2.57
same,"Histologic Findings in Liver, Mean Group Severity Scores, Total Overall Score","[4]; Low Histamine (0.5 mg/kg s.c. twice daily), Week 2 of ethanol treatment",3.33
same,"Histologic Findings in Liver, Mean Group Severity Scores, Total Overall Score","[4]; Low Histamine (0.5 mg/kg s.c. twice daily), Week 4 of ethanol treatment",3.17
same,appearance of excised livers,"[4]; histamine treated, ethanol-fed rats",comparative in appearance to livers from the non-ethanol treated group
same,apoptosis of lymphocytes,[5],significantly prevented
same,liver damage by laboratory tests,[6],no damage to the patient's liver
Cl.Cl.NCCc1c[nH]cn1 [histamine dihydrochloride],liver damage,[7],further damage to the tissue of the liver is prevented
OO [hydrogen peroxide],cells that became apoptotic,T-cells,35±5%
same,cells that became apoptotic,NK/T-cells,78±7%
same,cells that became apoptotic,NK-cells,65±7%
catalase,hepatic injury,[8],No hepatic injury is observed
histamine diphosphate,damage to hepatic tissue (liver biopsy),[9],prevents damage to hepatic tissue
same,incidence of infection associated with pancreatitis,[9],lowers the incidence of infection associated with pancreatitis
